In US20110207144A1, “IN VITRO SCREENING ASSAYS” (priority 2009, published 2011):

System: Human Umbilical Vein Endothelial Cell (HUVEC)
Assay: HUVEC vasculogenesis/angiogenesis assay (HUVEC co-cultured with human fibroblasts, CD31 labeling of vessels)
Type: cell-based
Conditions: for all three vessel parameters relative to the control wells: 11 days, p<0.05, one way ANOVA
Procedure: Studies were conducted to determine the effects of anti-LOXL2 antibody AB0023 in an in vitro vasculogenesis/angiogenesis assay. For this purpose, a dose range of AB0023 was tested alongside VEGF (an angiogenesis promoter), suramin (an angiogenesis inhibitor) and media alone in a HUVECs based in vitro system. The assay was run for 11 days with media changes on days 1, 4, 7 and 9. After 11 days, wells were fixed with 70% ethanol and vessels were tested for expression of CD31, an endothelial marker. Images of 4 random fields per well were taken and the number of branch points, number of vessels and total vessel length was calculated for each well using a specialist software analysis package.
At this point (day 1), fresh endothelial cell growth medium containing the test item and controls, as detailed in Table 1, was added to wells at 0.5 ml per well. Test item and controls were added in duplicate or triplicate according to Table 1, and media-only added in triplicate acted as baseline endothelial growth control. The plate was then cultured at 37° C. and 5% CO2. On days 4, 7 and 9 the medium was removed from all wells and carefully replaced with 0.5 ml of fresh medium containing the test item and controls as detailed in Table 1. On day 11, the plates were fixed and labeled for CD31 as detailed below. On each day of the experiment the plate was visualized using an inverted microscope to ensure normal growth cells and no contamination.
After 11 days, plates were fixed by carefully aspirating medium from wells, washed with 1 ml PBS per well, and then 1 ml ice cold 70% ethanol was added for 30 minutes at room temperature. Fixative was then carefully removed and the wells were incubated with 0.5 ml mouse anti-human CD31 antibody diluted 1:400 in PBS containing 1% BSA and incubated for 60 minutes at 37° C. Wells were then washed three times with 1 ml PBS followed by incubation with 0.5 ml goat anti-mouse IgG alkaline phosphatase conjugated secondary antibody diluted 1:500 in PBS containing 1% BSA for 60 minutes at 37° C. Wells were washed a further three times with 1 ml PBS prior to incubation with 0.5 ml freshly prepared and filtered BCIP/NBT substrate for 10 minutes at 37° C. Wells were then carefully washed three times with 1 ml distilled water and left to air dry overnight.
Digital images of each well were obtained using a Nikon Coolpix camera on a Leica inverted microscope at 10× magnification. Four random fields per well were imaged, producing 96 images in total. Images were then converted to BMP files and imported into an image analysis package to measure the number of vessel branches, number of vessels and total vessel length. This is performed by thresholding the image so that only CD31-stained vessels were detected, which the software then skeletonized to produce single pixel width vessels. From these, individual vessel length, total vessel length and number of vessel branch points were determined. The data were then exported to Excel to calculate mean and standard deviation for each data set. Basic statistics were carried out using a one-way ANOVA.

## Cc1ccc(C(=O)Nc2ccc(S(=O)(=O)O)c3cc(S(=O)(=O)O)cc(S(=O)(=O)O)c23)cc1NC(=O)c1cccc(NC(=O)Nc2cccc(C(=O)Nc3cc(C(=O)Nc4ccc(S(=O)(=O)O)c5cc(S(=O)(=O)O)cc(S(=O)(=O)O)c45)ccc3C)c2)c1 [Suramin, suramin]
20 μM suramin, p<0.05 one way ANOVA
  number of branches relative to the control group: significant reduction
Suramin 20 μM (FIG. 2)
  vessel formation relative to control wells: decrease in vessel formation
Suramin 20 μM
  all three vessel parameters relative to the control wells: significant decrease

## VEGF
  branching relative to the control group: significant increase
VEGF 2 ng/ml (FIG. 4)
  vessel formation relative to control wells: increase in vessel formation
VEGF 2 ng/ml
  all three vessel parameters relative to the control wells: increase
